Measured values as given in publication PMC7248897, “Synthesis, Biological Evaluation and In Silico Studies of Certain Oxindole–Indole Conjugates as Anticancer CDK Inhibitors” (Molecules, 2020).

Assays:
[1] = molecular target: CDK9 (Homo sapiens, UniProt P50750); test: CDK9 kinase inhibition (Reaction Biology HotSpot); conditions: read-out: % Enzyme Inhibitory Activity CDK9
Experimental: The in vitro CDK kinase inhibition assay was performed by Reaction Biology Corp. (PA, USA) (http://www.reactionbiology.com) Kinase HotSpotSM service.
Reaction Biology Corp. Kinase HotSpotSM service (http://www.reactionbiology.com)
was used for screening of tested compounds. CDK Kinase inhibitory activities were
assessed by the HotSpot assay platform, which contained specific kinase/substrate pairs
along with required cofactors. Base reaction buffer: 20 mM Hepes (pH 7.5), 10 mM MgCl2,
Testing compounds were dissolved in 100% DMSO to specific concentration. The serial
dilution was conducted by Integra Viaflo Assist in DMSO. The reaction mixture containing the examined compound and 33P-ATP was incubated at room temperature for
2 h and radioactivity was detected by filter-binding method. Kinase activity data were
expressed as the percent remaining kinase activity in test samples compared to vehicle

[2] = system: MDA-MB-231 breast cancer cell line; test: SRB anti-proliferative assay, MDA-MB-231; assay type: cell-based, human; conditions: for IC50: Homo sapiens, MDA-MB-231, SRB assay, 48 h, mean ± S.D. from 3 separate experiments, read-out: IC50 MDA-MB-231
Experimental: Cytotoxicity was assessed following the SRB colorimetric assay protocol, as reported earlier.
1. Anti-proliferative action toward human breast cell lines […]
have been obtained from American Type Culture Collection (ATCC). The cells were maintained in Dulbecco's modified Eagle's medium (DMEM) supplemented with 10% heat inactivated fetal calf serum (GIBCO), penicillin (100 U/ml) and streptomycin (100 µg/ml) at 37 °C in humidified atmosphere containing 5% CO2. Cells at a concentration of […]
The anti-proliferative activity of the tested hybrids 6a-i, 9a-f and 11a, b was measured in vitro using the Sulfo-Rhodamine-B stain (SRB) assay. Briefly, Cells were inoculated in 96-well microtiter plate (5X104 cells/ well) for 24 h before treatment with the tested compounds to allow attachment of cell to the wall of the plate. Tested compounds were dissolved in DMSO at 1 mg/ml immediately before use and diluted to the appropriate volume just before addition to the cell culture. Different concentrations of tested compounds, doxorubicin and sorafenib were added to the cells (three wells were prepared for each individual dose). Cells were incubated with the compounds for 48 h at 37°C and in atmosphere of 5% CO2. After 48 h cells were fixed, washed, and stained for 30 min with 0.4% (w/v) SRB dissolved in 1% acetic acid. Unbound dye was removed by four washes with 1% acetic acid, and attached stain was recovered with Tris-EDTA buffer.
Color intensity was measured in an ELISA reader. […]

[3] = system: p53; test: ELISA of p53 level in MCF-7 cells; assay type: cell-based, human; conditions: for fold increase of p53 level: MCF-7, as compared to the control; for p53: MCF-7 cells treated at IC50, 48 h, control 41.26 ± 2.7
Experimental: (§1) In addition, their influence on the level of caspase-3 and p53 was estimated in the MCF-7 cell line.
(§2) Assessment of the levels for the proapoptotic markers (Bax, caspase-3, and p53) as well as the antiapoptotic marker (Bcl-2) was carried out through the use of ELISA colorimetric kits in accordance with the manufacturer’s instructions, as mentioned earlier. In addition, the pro-apoptotic potential of indoles 6e and 6f towards MCF-7 cells was evaluated through an FITC Annexin V apoptosis detection kit by flow cytometry, in accordance with the manufacturer’s protocol and referring to the reported procedures.
(§3) The levels of the pro-apoptotic markers (Bax, caspase-3 and p53) as well as the anti-apoptotic marker Bcl-2 were determined using ELISA colorimetric kits per the manufacturer’s instructions. Breast cancer MCF-7 cells were cultured as a monolayer in T-25 flasks and were seeded to attain 30% confluency prior to treatment. Cells were then […]
(§4) of treatment, cells were collected via trypsinization and centrifuged at 10,000 rpm. The pellet was then rinsed with PBS and lysed in RIPA lysis buffer at 4 °C for 45 min, then centrifuged at 14,000 rpm for 20 min to remove the cellular debris. Lysates were then collected and stored at −80 °C for later protein determination using Pierce BCA Protein Assay Kit according to manufacturer’s recommendations.
(§5) The cell lysate was diluted 10 times, and 100 μL ([…]) was added to the wells of four separate microtiter plates for the four ELISA kits that were pre-coated with primary antibodies specific to Bax, Bcl-2, caspase-3 and p53 proteins, respectively. A secondary biotin-linked antibody specific to the protein captured by the primary antibody was further added to bind the captured protein, forming a “sandwich” of specific antibodies around the desired protein in the cell lysate. The streptavidin-HRP complex was then used to bind the biotin-linked secondary antibody through its streptavidin portion. The HRP domain reacted with the added TMB substrate to form a colored product that measured at 450 nm by a plate reader ChroMate-4300 after the reaction was terminated via the addition of stop solution. […]
(§6) Cells were then rinsed in binding buffer and resuspended in 150
(§7) μL of binding buffer with the addition of 1 μL of DAPI (1 μg/μL in PBS). […]

[4] = system: caspase-3; test: ELISA of active caspase-3 level in MCF-7 cells; assay type: cell-based, human; conditions: for fold increase of caspase-3 level: MCF-7, in comparison to the control; for Caspase-3: active caspase-3, MCF-7 cells treated at IC50, 48 h, control 35.92 ± 1.8
Experimental: as §1, §2, §3, §4, §5, §6, §7

[5] = system: Bcl-2; test: ELISA of Bcl-2 level in MCF-7 cells; assay type: cell-based, human; conditions: for fold decrease of Bcl-2 level: MCF-7, vs control; for Bcl-2: MCF-7 cells treated at IC50, 48 h, control 4.65 ± 0.23
Experimental: (§8) Homogeneously, both conjugates were able to decrease the level of the anti-apoptotic Bcl-2 protein by 2.12-, and 1.7-fold, respectively (Table 3). As a more analytical variable, the Bax/Bcl-2 ratio was verified to be amplified by conjugates 6e and 6f, 18- and 12-fold, respectively.
as §2, §3, §4, §5, §6, §7

[6] = system: Bax; test: ELISA of Bax level in MCF-7 cells; assay type: cell-based, human; conditions: for fold increase of Bax level: MCF-7, vs control; for Bax: MCF-7 cells treated at IC50, 48 h, control 38.3 ± 2.2
Experimental: as §8, §2, §3, §4, §5, §6, §7

[7] = system: Bax/Bcl-2; test: Bax/Bcl-2 ratio in MCF-7 cells; assay type: cell-based, human; conditions: for fold increase of Bax/Bcl-2 ratio: MCF-7, vs control; for Bax/Bcl-2: MCF-7 cells treated at IC50, control 8.2
Experimental: as §8, §2, §3, §4, §5, §6, §7

[8] = molecular target: T1, CDK4 (Homo sapiens, UniProt P11802); test: CDK4 kinase inhibition (Reaction Biology HotSpot); assay type: biochemical; conditions: for inhibition at 20 µM: single dose of 20 µM
T1 construct: purchased Reaction Biology Corp. (Kinase HotSpot service)
T1 sequence (P11802 whole entry): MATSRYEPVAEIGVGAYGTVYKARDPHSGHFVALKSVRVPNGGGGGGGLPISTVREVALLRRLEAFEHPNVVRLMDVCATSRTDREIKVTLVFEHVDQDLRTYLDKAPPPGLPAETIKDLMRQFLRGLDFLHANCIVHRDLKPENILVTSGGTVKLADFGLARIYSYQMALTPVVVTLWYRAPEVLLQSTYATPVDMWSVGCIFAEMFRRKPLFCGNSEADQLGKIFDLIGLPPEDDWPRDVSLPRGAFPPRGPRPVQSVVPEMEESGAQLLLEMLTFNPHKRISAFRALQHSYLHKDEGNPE
T1 sequence (P24385 whole entry partner): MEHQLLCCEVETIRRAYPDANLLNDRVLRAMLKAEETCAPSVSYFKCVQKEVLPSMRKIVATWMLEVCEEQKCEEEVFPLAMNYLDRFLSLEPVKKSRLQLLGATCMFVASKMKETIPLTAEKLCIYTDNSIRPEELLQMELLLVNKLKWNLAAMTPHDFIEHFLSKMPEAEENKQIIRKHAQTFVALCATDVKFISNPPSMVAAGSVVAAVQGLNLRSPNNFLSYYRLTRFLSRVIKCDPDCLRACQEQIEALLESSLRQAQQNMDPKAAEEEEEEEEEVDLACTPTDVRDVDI
From the text: 5. CDK Kinase Inhibitory Activity
along with required cofactors.
Kinase activity data were
(dimethyl sulfoxide) reactions.

Chain of CDK9 (P50750 whole entry): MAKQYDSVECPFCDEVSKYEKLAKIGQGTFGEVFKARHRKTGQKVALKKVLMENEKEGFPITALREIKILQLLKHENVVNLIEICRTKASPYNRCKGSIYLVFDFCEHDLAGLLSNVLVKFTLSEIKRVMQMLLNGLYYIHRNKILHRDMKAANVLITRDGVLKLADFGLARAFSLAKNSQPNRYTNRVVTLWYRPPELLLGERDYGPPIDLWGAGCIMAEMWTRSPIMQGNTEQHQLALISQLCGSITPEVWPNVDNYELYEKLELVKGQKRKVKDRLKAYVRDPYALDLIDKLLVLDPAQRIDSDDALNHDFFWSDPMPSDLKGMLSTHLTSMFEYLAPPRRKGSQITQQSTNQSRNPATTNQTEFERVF
Chain of CDK9 (O60563 whole entry partner): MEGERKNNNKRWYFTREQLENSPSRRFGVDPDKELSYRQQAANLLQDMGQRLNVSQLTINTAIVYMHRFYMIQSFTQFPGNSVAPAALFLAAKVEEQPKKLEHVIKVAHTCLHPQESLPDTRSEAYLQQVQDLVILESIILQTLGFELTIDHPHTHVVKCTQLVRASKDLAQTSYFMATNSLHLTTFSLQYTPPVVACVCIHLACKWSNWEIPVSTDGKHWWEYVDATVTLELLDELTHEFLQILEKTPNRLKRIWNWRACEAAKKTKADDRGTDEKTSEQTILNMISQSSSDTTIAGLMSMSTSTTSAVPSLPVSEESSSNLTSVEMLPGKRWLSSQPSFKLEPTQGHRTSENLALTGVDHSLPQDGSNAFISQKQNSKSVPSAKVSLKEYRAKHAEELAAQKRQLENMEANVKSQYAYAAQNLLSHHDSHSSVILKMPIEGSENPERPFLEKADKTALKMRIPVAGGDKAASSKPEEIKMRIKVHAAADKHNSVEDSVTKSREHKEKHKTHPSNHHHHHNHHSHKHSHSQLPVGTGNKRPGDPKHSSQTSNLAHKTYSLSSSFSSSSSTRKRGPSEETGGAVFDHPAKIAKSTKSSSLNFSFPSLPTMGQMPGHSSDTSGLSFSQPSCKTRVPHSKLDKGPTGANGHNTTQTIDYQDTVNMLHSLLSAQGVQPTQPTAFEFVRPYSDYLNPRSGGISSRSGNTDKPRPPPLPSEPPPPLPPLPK

inhibition at 20 µM [1] [%] | IC50 [2] [µM] | IC50 [8] [µM] | inhibition at 20 µM [8] [%] | SMILES | fold increase of p53 level [3] [fold] | p53 [3] [pg/mg] | fold increase of caspase-3 level [4] [fold] | Caspase-3 [4] [pg/mg] | fold decrease of Bcl-2 level [5] [fold] | Bcl-2 [5] | fold increase of Bax level [6] [fold] | Bax [6] | fold increase of Bax/Bcl-2 ratio [7] [fold] | Bax/Bcl-2 [7] | fold potency compared to staurosporine ([2]; MDA-MB-231, ratio of IC50 values) [fold]
18 | 22.5 ± 1.67 | 1.26 | 93 | Cc1ccc2c(c1)/C(=N/NC(=O)c1cc3ccccc3[nH]1)C(=O)N2 [6e] | 17 | 704.39 ± 32.8 | 11.45 | 411.70 ± 12.3 | 2.12 | 2.19 ± 0.10 ng/mg of Total Protein | 8.5 | 325.3 ± 12.1 pg/mg of Total Protein | 18 | 148.5 | –
8 | 2.85 ± 0.9 | – | 14 | COc1ccc2c(c1)/C(=N/NC(=O)c1cc3ccccc3[nH]1)C(=O)N2 [6f] | 13.3 | 547.60 ± 29.5 | 10.1 | 364.15 ± 14.8 | 1.7 | 2.73 ± 0.13 ng/mg of Total Protein | 7 | 268.7 ± 9.5 pg/mg of Total Protein | 12 | 98.6 | 3.6
